Experimental data from EP1171440B1, “SUBSTITUTED-3-CYANO-[1.7],[1.5], AND [1.8]-NAPHTHYRIDINE INHIBITORS OF TYROSINE KINASES” (Wyeth Holdings Corporation, priority 1999, dated 2000).
≈ marks a conversion by molar mass, not a printed value.

Columns and labels:
[1] = molecular target: T1, KDR; the catalytic domain of the VEGF receptor (Homo sapiens, UniProt P35968); assay: Inhibition of Kinase insert Domain containing Receptor (KDR), radioactive substrate phosphorylation; format: biochemical; settings: pH 7.2; substrate copolymer of glutamic acid and tyrosine, E:Y = 4:1
T1 construct: KDR; the catalytic domain of the VEGF receptor
T1 sequence (P35968 834-1162 limits assumed): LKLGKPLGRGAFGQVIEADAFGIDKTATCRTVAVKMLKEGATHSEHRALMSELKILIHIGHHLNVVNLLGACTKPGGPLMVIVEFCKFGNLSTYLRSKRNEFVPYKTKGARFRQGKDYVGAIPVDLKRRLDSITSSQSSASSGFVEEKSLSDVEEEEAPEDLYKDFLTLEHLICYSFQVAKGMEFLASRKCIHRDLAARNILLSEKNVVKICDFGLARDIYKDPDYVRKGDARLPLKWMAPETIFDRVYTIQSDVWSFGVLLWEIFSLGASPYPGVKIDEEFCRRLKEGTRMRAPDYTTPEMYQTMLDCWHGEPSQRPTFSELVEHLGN
Procedure: In this standard pharmacological test procedure, KDR protein is mixed, in the presence or absence of an inhibitor compound, with a substrate peptide to be phosphorylated (a copolymer of glutamic acid and tyrosine, E:Y = 4:1) and other cofactors such as Mg^++ and sodium vanadate (a protein tyrosine phosphatase inhibitor) in an appropriate buffer to maintain pH (7.2). ATP and a radioactive tracer (either P^32- or P^33- labeled ATP) is then add to initiate phosphorylation. After incubation, the radioactive phosphate associated with the acid-insoluble fraction of the assay mixture is then quantified as reflection of substrate phosphorylation. This radioactive format was used to identify inhibitors of KDR tyrosine kinase activity where the IC50 is the concentration of drug that inhibits substrate phosphorylation by 50%.

[2] = molecular target: T2, EGF-R Kinase (recombinant enzyme) (Homo sapiens, UniProt P00533); assay: Inhibition of Epidermal Growth Factor Receptor Kinase (EGF-R) using recombinant enzyme, RR-SRC peptide phosphorylation with 33P-ATP; format: biochemical; settings: for IC50: recombinant His-tagged cytoplasmic domain of EGFR, RR-SRC peptide, 90 min at room temperature, read-out: IC50
T2 construct: containing the EGFR cDNA encoding amino acids 645 - 1186 preceded by Met-Ala-(His)6; made in house; host or cells: Sf9 insect cells infected with recombinant baculovirus vHcEGFR52
T2 sequence (P00533 669-1210): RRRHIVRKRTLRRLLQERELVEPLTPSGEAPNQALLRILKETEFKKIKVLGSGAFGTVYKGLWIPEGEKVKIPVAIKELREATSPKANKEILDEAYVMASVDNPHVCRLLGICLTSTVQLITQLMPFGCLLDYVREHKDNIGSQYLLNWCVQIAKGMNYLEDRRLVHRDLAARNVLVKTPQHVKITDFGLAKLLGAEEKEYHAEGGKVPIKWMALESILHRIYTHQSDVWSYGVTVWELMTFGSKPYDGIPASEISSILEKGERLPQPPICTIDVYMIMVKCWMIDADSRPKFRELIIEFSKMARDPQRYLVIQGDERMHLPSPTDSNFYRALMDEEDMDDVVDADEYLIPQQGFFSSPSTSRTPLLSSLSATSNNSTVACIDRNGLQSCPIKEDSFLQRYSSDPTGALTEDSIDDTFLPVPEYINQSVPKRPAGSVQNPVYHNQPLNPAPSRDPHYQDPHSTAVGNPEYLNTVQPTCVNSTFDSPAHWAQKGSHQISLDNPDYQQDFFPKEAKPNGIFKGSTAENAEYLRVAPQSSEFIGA
Procedure: Representative test compounds were evaluated for their ability to inhibit the phosphorylation of the tyrosine residue of a peptide substrate catalyzed by the enzyme epidermal growth factor receptor kinase. […] The enzyme used in this assay is the His-tagged cytoplasmic domain of EGFR. A recombinant baculovirus (vHcEGFR52) was constructed containing the EGFR cDNA encoding amino acids 645 - 1186 preceded by Met-Ala-(His)6 . Sf9 cells in 100 mm plates were infected at an moi of 10 pfu/cell and cells were harvested 48 h post infection. A cytoplasmic extract was prepared using 1% Triton X-100 and applied to Ni-NTA column. After washing the column with 20 mM imidazole, HcEGFR was eluted with 250 mM imidazole (in 50 mM Na2HPO4, pH 8.0, 300 mM NaCl). Fractions collected were dialyzed against 10 mM HEPES, pH 7.0, 50 mM NaCl, 10% glycerol, 1ug/mL antipain and leupeptin and 0.1 mM Pefabloc SC. The protein was frozen in dry ice/methanol and stored -70° C.
Test compounds were made into 10 mg/mL stock solutions in 100% dimethylsulfoxide (DMSO). Prior to experiment, stock solutions were diluted to 500 uM with 100% DMSO and then serially diluted to the desired concentration with HEPES buffer (30 mM HEPES pH 7.4).
For the enzyme reaction, 10 uL of each inhibitor (at various concentrations) were added to each well of a 96-well plate. To this was added 3 uL of enzyme (1:10 dilution in 10mM HEPES, pH 7.4 for final conc. of 1:120). This was allowed to sit for 10 min on ice and was followed by the addition of 5 ul peptide (80 uM final conc.), 10ul of 4X Buffer (Table A), 0.25 uL ^33P-ATP and 12 uL H2O. The reaction was allowed to run for 90 min at room temperature and was followed by spotting the entire volume on to precut P81 filter papers. The filter discs were washed 2X with 0.5% phosphoric acid and radioactivity was measured using a liquid scintillation counter. Table A
The IC50 is the concentration of test compound needed to reduce the total amount of phosphorylated substrate by 50%. The % inhibition of the test compound was determined for at least three different concentrations and the IC50 value was evaluated from the dose response curve. […] CPM(control) is in units of counts per minute and was a number expressing the amount of radiolabeled ATP (γ-^33P) incorporated into the RR-SRC peptide substrate by the enzyme after 90 minutes at room temperature in the absence of test compound as measured by liquid scintillation counting. The CPM values were corrected for the background counts produced by ATP in the absence of the enzymatic reaction. Where it was possible to determine an IC50 value, this is reported in TABLE 1 otherwise the % inhibition at 0.5 µM concentration of test compound is shown in TABLE 1.

A431 = assay: Inhibition of Cancer Cell Growth as Measured by Cell Number (Sulforhodamine B); format: cell-based, Human; settings: Homo sapiens, A-431, 48 h, 48 hours exposure, read-out: IC50
Procedure: (§1) After 48 hours exposure to test compounds, cells were fixed with trichloroacetic acid, and stained with Sulforhodamine B. After washing with trichloroacetic acid, bound dye was solubilized in 10 mM Tris base and optical density was determined using a plate reader. Under conditions of the assay the optical density is proportional to the number of cells in the well. […] The test procedure is described in details by Philip Skehan et. al, J.Natl. Canc. […] The Her2Neu cell line is a 3T3 line that has bbeen transfected with Her2 receptor kinase.

MDA435 = assay: as above; format: cell-based, Human; settings: Homo sapiens, MDA435, 48 h, 48 hours exposure, read-out: IC50
Procedure: as §1

SKBR3 = assay: as above; format: cell-based, Human; settings: Homo sapiens, SK-BR-3, 48 hours exposure, read-out: IC50
Procedure: as §1

SW620 = assay: as above; format: cell-based, Human; settings: Homo sapiens, SW-620, 48 hours exposure, read-out: IC50
Procedure: as §1

3T3 = assay: as above; format: cell-based; settings: Mus musculus, NIH3T3, 48 hours exposure, read-out: IC50
Procedure: (§2) Human tumor cell lines were plated in 96-well plates (250 µl/well, 1-6 x 10^4 cells/ml) in RPMI 1640 medium, containing 5% FBS (Fetal Bovine Serum). […] After 48 hours exposure to test compounds, cells were fixed with trichloroacetic acid, and stained with Sulforhodamine B. After washing with trichloroacetic acid, bound dye was solubilized in 10 mM Tris base and optical density was determined using a plate reader. Under conditions of the assay the optical density is proportional to the number of cells in the well. IC50s (concentrations causing 50% inhibition of cell growth) were determined from the growth inhibition plots. The test procedure is described in details by Philip Skehan et. al, J.Natl. Canc. Inst., 82, 1107-1112 (1990). […] Information about some of the cell lines used in these test procedures is available from the American […]: Cell Lines and Hybridomas, 1994 Reference Guide, 8th Edition. The Her2Neu cell line is a 3T3 line that has bbeen transfected with Her2 receptor kinase.

Her2Neu = assay: as above; format: cell-based; settings: Her2Neu (3T3 line transfected with Her2 receptor kinase); 48 hours exposure
Procedure: as §2

A2780DDP = assay: as above; format: cell-based, Human; settings: Homo sapiens, 48 h, 48 hours exposure, read-out: IC50
Procedure: as §1

A2780S = assay: as above; format: cell-based, Human; settings: Homo sapiens, 48 h, 48 hours exposure, read-out: IC50
Procedure: as §1

LOX = assay: as above; format: cell-based, Human; settings: Homo sapiens, 48 hours exposure, read-out: IC50
Procedure: as §1

MCF7 = assay: as above; format: cell-based; settings: Homo sapiens, 48 hours exposure
Procedure: as §2

IC50 [1] | inhibition at 0.5 µM ([2]; 0.5 µM concentration of test compound, read-out: % Inhibition @ 0.5) | IC50 [2] | IC50 (A431) | IC50 (MDA435) | IC50 (SKBR3) | IC50 (SW620) | IC50 (Her2Neu) | IC50 (A2780DDP) | IC50 (A2780S) | IC50 (LOX) | IC50 (MCF7) | Structure (SMILES) | IC50 (3T3)
33.9 mg/L (≈ 115 µM) |  |  |  |  |  |  |  |  |  |  |  | Cc1ccc(Nc2c(C#N)cnc3cnc(F)cc23)cc1O [Example 66, 6-Fluoro-4-(3-hydroxy-4-methyl-phenylamino)-[1.7]naphthyridine-3-carbonitrile] | 
 | 31.3% | 1 µM | 2.23 mg/L (≈ 5.77 µM) | > 5 mg/L | 4.63 mg/L (≈ 12 µM) | > 5 mg/L | > 5 mg/L |  |  |  |  | CN(C)CCOc1cc2c(Nc3ccc(F)c(Cl)c3)c(C#N)cnc2cn1 [Example 74, 4-(3-Chloro-4-fluoro-phenylamino)-6-(2-dimethylamino-ethoxy)-[1.7]naphthyridine-3-carbonitrile] | 4.48 mg/L (≈ 11.6 µM)
 |  | 0.02 µM | 0.23 mg/L (≈ 0.566 µM) | 0.88 mg/L (≈ 2.17 µM) | 0.12 mg/L (≈ 0.295 µM) | 0.17 mg/L (≈ 0.418 µM) |  | 0.13 mg/L (≈ 0.32 µM) | 0.06 mg/L (≈ 0.148 µM) | 0.07 mg/L (≈ 0.172 µM) | 0.4 mg/L (≈ 0.985 µM) | CC#CC(=O)Nc1cc2c(Nc3cccc(Br)c3)c(C#N)cnc2cn1 [Example 61, But-2-ynoic acid, [4-(3-bromo-phenylamino)-3-cyano-[1.7]-naphthyridin-6-yl]-amide] | 
